{
  "source": "patent US20130289019A1",
  "about": "“METHODS OF TREATING BEHAVIORIAL AND/OR MENTAL DISORDERS” (AMAZING GRACE, INC., priority 2012, published 2013)",
  "system": "rats (NAc infusion)",
  "assay": "swim test scores during bilateral fluoxetine infusion in the NAc",
  "type": "in vivo, rat",
  "data": [
    {"smiles": "CNCCC(Oc1ccc(C(F)(F)F)cc1)c1ccccc1", "note": "(centres unmarked) [Fluoxetine]", "values": [
      {"measurement": "Swimming + Climbing (total escape attempts), FLU", "setting": "0.2 mM bilateral in NAc, fluoxetine on Day 2 (Ringer Day 3)", "result": "54 ± 30"},
      {"measurement": "Swimming + Climbing (total escape attempts), FLU", "setting": "0.2 mM bilateral in NAc, fluoxetine on Day 3 (Ringer Day 2)", "result": "74 ± 13"},
      {"measurement": "Swimming + Climbing (total escape attempts), FLU", "setting": "0.2 mM bilateral in NAc, on Day 2 or Day 3 (combined)", "result": "66 ± 12"},
      {"measurement": "Swimming + Climbing (total escape attempts), FLU", "setting": "0.5 mM bilateral in NAc, fluoxetine on Day 2 (Ringer Day 3)", "result": "51 ± 9"},
      {"measurement": "Swimming + Climbing (total escape attempts), FLU", "setting": "0.5 mM bilateral in NAc, fluoxetine on Day 3 (Ringer Day 2)", "result": "81 ± 9"},
      {"measurement": "Swimming + Climbing (total escape attempts), FLU", "setting": "0.75 mM bilateral in NAc, fluoxetine on Day 2 (Ringer Day 3)", "result": "58 ± 11"},
      {"measurement": "Swimming + Climbing (total escape attempts), FLU", "setting": "0.75 mM bilateral in NAc, fluoxetine on Day 3 (Ringer Day 2)", "result": "73 ± 11"},
      {"measurement": "Swimming + Climbing (total escape attempts), FLU", "setting": "0.75 mM bilateral in NAc, on Day 2 or Day 3 (combined)", "result": "67 ± 7"}
    ]}
  ]
}
